IC50 data for 27 molecules are collected here from patent US8933224B2, “Triazine derivatives” (Pfizer Inc., priority 2013, dated 2015).

Each structure is given as a SMILES string.

The term IC50 denotes the concentration that gives 50% inhibition. A lower IC50 goes with greater potency in that assay.

Sequence of rat PDE10 enzyme (Q9QYJ6 24-794): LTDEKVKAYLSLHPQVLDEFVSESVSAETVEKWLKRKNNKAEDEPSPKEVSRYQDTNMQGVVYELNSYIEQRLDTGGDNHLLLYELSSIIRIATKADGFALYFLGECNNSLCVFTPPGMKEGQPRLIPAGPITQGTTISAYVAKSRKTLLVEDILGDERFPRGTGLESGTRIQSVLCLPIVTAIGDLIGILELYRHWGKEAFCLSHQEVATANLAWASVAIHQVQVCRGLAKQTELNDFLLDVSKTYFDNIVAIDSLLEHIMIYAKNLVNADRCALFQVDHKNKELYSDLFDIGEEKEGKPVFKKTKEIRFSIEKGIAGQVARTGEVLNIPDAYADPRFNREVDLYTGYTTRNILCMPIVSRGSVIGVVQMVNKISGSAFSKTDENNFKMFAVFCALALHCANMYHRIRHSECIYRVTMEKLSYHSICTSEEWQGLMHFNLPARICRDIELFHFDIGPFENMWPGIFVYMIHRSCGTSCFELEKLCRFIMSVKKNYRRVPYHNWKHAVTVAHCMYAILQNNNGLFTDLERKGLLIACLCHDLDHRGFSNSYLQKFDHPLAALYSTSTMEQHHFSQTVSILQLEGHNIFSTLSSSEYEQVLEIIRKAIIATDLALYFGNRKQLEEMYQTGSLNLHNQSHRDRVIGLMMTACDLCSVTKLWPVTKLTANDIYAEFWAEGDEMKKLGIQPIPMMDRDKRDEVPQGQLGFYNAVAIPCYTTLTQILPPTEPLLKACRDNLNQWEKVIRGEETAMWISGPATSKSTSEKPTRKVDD

The target of the assay is rat PDE10 enzyme (Rattus norvegicus (Rat), UniProt Q9QYJ6). The assay is described as follows: PDE10 scintillation proximity assay (SPA), inhibition of rat PDE10 enzyme activity. The format is biochemical. To be noted: geometric mean of 2-4 determinations unless otherwise indicated (b: ≧5 determinations; c: single determination). Summed up:
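SPA with fixed recombinant PDE10 (Sf21-expressed, Ni-NTA and Mono Q purified) converting ~20% of 20 nM ³H-cAMP in 50 mM TRIS pH 7.5, 1.3 mM MgCl2, 0.01% Brij, across an inhibitor range.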
Consider `Cc1ccc2c(n1)CCN(c1ncnn3c(C)nc(-c4ccccc4F)c13)C2` [Example 138, 6-[5-(2-fluorophenyl)-7-methylimidazo[5,1-f][1,2,4]triazin-4-yl]-2-methyl-5,6,7,8-tetrahydro-1,6-naphthyridine], for which the IC50 turned out to be 0.49 nM.
Molecule `CCn1c(C)nc2c(c1=O)CN(c1ncnn3c(C)nc(-c4ccccc4F)c13)CC2` [Example 126, 3-ethyl-6-[5-(2-fluorophenyl)-7-methylimidazo[5,1-f][1,2,4]triazin-4-yl]-2-methyl-5,6,7,8-tetrahydropyrido[4,3-d]pyrimidin-4(3H)-one] returned an IC50 of 1.19 nM.
Then `Cc1nc(-c2ccccc2F)c2c(N3CCc4ncnc(O)c4C3)ncnn12` [Example 172, 6-[5-(2-fluorophenyl)-7-methylimidazo[5,1-f][1,2,4]triazin-4-yl]-5,6,7,8-tetrahydropyrido[4,3-d]pyrimidin-4-ol], with 11.3 nM.
For `Cc1nc(CC(C)C)c2c(N3CCc4nc(C5CC5)oc4C3)ncnn12` [Example 54, 4-(2-cyclopropyl-6,7-dihydro[1,3]oxazolo[5,4-c]pyridin-5(4H)-yl)-5-isobutyl-7-methylimidazo[5,1-f][1,2,4]triazine], the IC50 came out at 4.52 nM.
Regarding `Cc1nc(-c2ccccc2F)c2c(N3CCc4ncccc4C3)ncnn12` [Example 151, 6-[5-(2-fluorophenyl)-7-methylimidazo[5,1-f][1,2,4]triazin-4-yl]-5,6,7,8-tetrahydro-1,6-naphthyridine], the IC50 was determined as 1.01 nM.
Consider `Cc1nc2c(c(OC(F)F)n1)CN(c1ncnn3c(C)nc(-c4ccccc4F)c13)CC2` [Example 125, 4-(difluoromethoxy)-6-[5-(2-fluorophenyl)-7-methylimidazo[5,1-f][1,2,4]triazin-4-yl]-2-methyl-5,6,7,8-tetrahydropyrido[4,3-d]pyrimidine], for which half-maximal inhibition (IC50) was put at 6.4 nM.
On to `COc1cc2c(cc1OC)CN(c1ncnn3c(C)nc(-c4ccccc4C)c13)CC2` [Example 62, 6,7-dimethoxy-2-[7-methyl-5-(2-methylphenyl)imidazo[5,1-f][1,2,4]triazin-4-yl]-1,2,3,4-tetrahydroisoquinoline], for which the IC50 came out at 3.87 nM.
Turning to `Cc1nc(-c2ccccc2F)c2c(N3Cc4ccccc4CC3C)ncnn12` (stereo not drawn) [Example 116, 2-[5-(2-fluorophenyl)-7-methylimidazo[5,1-f][1,2,4]triazin-4-yl]-3-methyl-1,2,3,4-tetrahydroisoquinoline], the IC50 was 8.01 nM.
Molecule `Cc1nc(CC(C)C)c2c(N3CCc4noc(C5CC5)c4C3)ncnn12` [Example 94, 4-(3-cyclopropyl-6,7-dihydro[1,2]oxazolo[4,3-c]pyridin-5(4H)-yl)-7-methyl-5-(2-methylpropyl)imidazo[5,1-f][1,2,4]triazine] showed an IC50 of 2.89 nM.
For `CNc1ccc2c(n1)CCN(c1ncnn3c(C)nc(-c4ccccc4F)c13)C2` [Example 153, 6-[5-(2-fluorophenyl)-7-methylimidazo[5,1-f][1,2,4]triazin-4-yl]-N-methyl-5,6,7,8-tetrahydro-1,6-naphthyridin-2-amine] the value was 0.436 nM; for `Cc1nc([C@@H]2CCOC2)c2c(N3CCc4nc(C5CC5)nc(C(F)(F)F)c4C3)ncnn12` [Example 89, 2-cyclopropyl-6-{7-methyl-5-[(3S)-tetrahydrofuran-3-yl]imidazo[5,1-f][1,2,4]triazin-4-yl}-4-(trifluoromethyl)-5,6,7,8-tetrahydropyrido[4,3-d]pyrimidine], 0.561 nM.
As to `Cc1nc(-c2ccccc2F)c2c(N3CCc4nc(C5CC5)nc(OC(F)F)c4C3)ncnn12` [Example 140, 2-cyclopropyl-4-(difluoromethoxy)-6-[5-(2-fluorophenyl)-7-methylimidazo[5,1-f][1,2,4]triazin-4-yl]-5,6,7,8-tetrahydropyrido[4,3-d]pyrimidine], the IC50 is 1.5 nM.
Consider `CCc1nc(C2CC2)nc2c1CN(c1ncnn3c(C)nc(-c4ccccc4F)c13)CC2` [Example 136, 2-cyclopropyl-4-ethyl-6-[5-(2-fluorophenyl)-7-methylimidazo[5,1-f][1,2,4]triazin-4-yl]-5,6,7,8-tetrahydropyrido[4,3-d]pyrimidine], for which half-maximal inhibition (IC50) was put at 0.265 nM.
Regarding `Cc1nc([C@@H]2CCOC2)c2c(N3CCc4nc(C5CC5)ncc4C3)ncnn12` [Example 16, 2-cyclopropyl-6-{7-methyl-5-[(3S)-tetrahydrofuran-3-yl]imidazo{5,1-f][1,2,4]triazin-4-yl}-5,6,7,8-tetrahydropyrido[4,3-d]pyrimidine], the IC50 is 6.55 nM.
In the case of `Cc1nc(-c2ccccc2F)c2c(N3CCc4cccnc4C3)ncnn12` [Example 65], half-maximal inhibition (IC50) required 2.98 nM.
For `Cc1noc2c1CN(c1ncnn3c(C)nc([C@@H]4CCOC4)c13)CC2` [Example 34, 7-methyl-4-(3-methyl-6,7-dihydro[1,2]oxazolo[4,5-c]pyridin-5(4H)-yl)-5-[(3S)-tetrahydrofuran-3-yl]imidazo[5,1-f][1,2,4]triazine], the IC50 was determined as 16.5 nM.
In turn, `Cc1nc([C@@H]2CCOC2)c2c(N3CCc4nc(C5CC5)nc(O)c4C3)ncnn12` [Example 52, 2-cyclopropyl-6-{7-methyl-5-[(3S)-tetrahydrofuran-3-yl]imidazo[5,1-f][1,2,4]triazin-4-yl}-5,6,7,8-tetrahydropyrido[4,3-d]pyrimidin-4-ol] came in with an IC50 of 0.101 nM.
`Cc1nc([C@H]2CCOC2)c2c(N3CCc4c(cnn4C4CC4)C3)ncnn12` [Example 98, 4-(1-cyclopropyl-1,4,6,7-tetrahydro-5H-pyrazolo[4,3-c]pyridin-5-yl)-7-methyl-5-[(3R)-tetrahydrofuran-3-yl]imidazo[5,1-f][1,2,4]triazine] came in with an IC50 of 11.6 nM.
As to `CCc1nn(C)c2c1CN(c1ncnn3c(C)nc(-c4ccccc4F)c13)CC2` [Example 117], inhibition was half-maximal at 0.336 nM (IC50).
In turn, `CCc1nn(C)c2c1CN(c1ncnn3c(C)nc([C@H]4CCCO4)c13)CC2` [Example 80, 4-(3-ethyl-1-methyl-1,4,6,7-tetrahydro-5H-pyrazolo[4,3-c]pyridin-5-yl)-7-methyl-5-[(2R)-tetrahydrofuran-2-yl]imidazo[5,1-f][1,2,4]triazine] had an IC50 of 17.6 nM.
`[2H]C([2H])([2H])Oc1nc(C2CC2)nc2c1CN(c1ncnn3c(C)nc([C@@H]4CCOC4)c13)CC2` [Example 173] displayed an IC50 of 0.136 nM.
For the molecule `Cc1nc2c(o1)CN(c1ncnn3c(C)nc([C@H]4CCOC4)c13)CC2` [Example 76, 7-methyl-4-(2-methyl-6,7-dihydro[1,3]oxazolo[5,4-c]pyridin-5(4H)-yl)-5-[(3R)-tetrahydrofuran-3-yl]imidazo[5,1-f][1,2,4]triazine], the IC50 was 22.9 nM.
Consider `Cc1nc(-c2ccc(F)cc2Cl)c2c(N3CCc4nc(C5CC5)ncc4C3)ncnn12` [Example 7, 6-[5-(2-Chloro-4-fluorophenyl)-7-methylimidazo[5,1-f][1,2,4]triazin-4-yl]-2-cyclopropyl-5,6,7,8-tetrahydropyrido[4,3-d]pyrimidine], for which the IC50 came out at 8.44 nM.
For `Cc1nn(C)c2c1CN(c1ncnn3c(C)nc(-c4ccc(F)cc4Cl)c13)CC2` [Example 121, 5-(2-chloro-4-fluorophenyl)-4-(1,3-dimethyl-1,4,6,7-tetrahydro-5H-pyrazolo[4,3-c]pyridin-5-yl)-7-methylimidazo[5,1-f][1,2,4]triazine], the IC50 was found to be 1.35 nM.
For `Cc1nc(C2CCCO2)c2c(N3CCc4nc(C5CC5)ncc4C3)ncnn12` (stereo not drawn) [Example 22, 2-cyclopropyl-6-[7-methyl-5-(tetrahydrofuran-2-yl)imidazo[5,1-f][1,2,4]triazin-4-yl]-5,6,7,8-tetrahydropyrido[4,3-d]pyrimidine] the value was 5.2 nM.
For `CCc1n[nH]c2c1CN(c1ncnn3c(C)nc(C4CCOCC4)c13)CC2` [Example 107, 4-(3-ethyl-1,4,6,7-tetrahydro-5H-pyrazolo[4,3-c]pyridin-5-yl)-7-methyl-5-(tetrahydro-2H-pyran-4-yl)imidazo[5,1-f][1,2,4]triazine] the value was 0.959 nM; for `Cc1nc(-c2ccccc2F)c2c(N3CCc4nc(C5CC5)oc4C3)ncnn12` [Example 53, 4-(2-cyclopropyl-6,7-dihydro[1,3]oxazolo[5,4-c]pyridin-5(4H)-yl)-5-(2-fluorophenyl)-7-methylimidazo[5,1-f][1,2,4]triazine], 1.79 nM.
